According to paper PMC5072737, “Heterologous Expression and Delivery of Biologically Active Exendin-4 by Lactobacillus paracasei L14” (PLoS ONE, 2016):

Legend:
PDX-1 = assay: qRT-PCR of PDX-1 mRNA expression in INS-1 cells; assay type: cell-based, Rattus norvegicus; settings: INS-1 cells treated 2 h, ΔΔCT, β-actin reference, n = 3
Description: (§1) INS-1 cells were seeded in 24-well plates at a density of 10^5 cells per well and grown to 100% confluence before the assay. The medium was changed 24 h before the assay. For the assay, cells were quickly rinsed in 1 ml Hank's balanced salt solution (HBSS) with 3 mM glucose followed by a 2 h preincubation with 1 ml of the same buffer. Then the buffer was discarded, RPMI 1640–exendin-4 medium diluted 1:1 (v/v) with fresh medium plus 5 mM glucose (600 μl per well) were added, and the mixture was incubated for 2 h. Standard GLP-1 (100 nmol/l) in RPMI 1640 medium was used as a positive control. […] At the end of the incubation, supernatant was collected and centrifuged for 10 min at 4000 × g at 4°C and insulin concentration was determined by ELISA kit (Millipore, St. Charles, MO, USA). The cells were collected to analyze mRNA expression of pancreatic duodenal homeobox-1 (PDX-1) and insulin gene (Insulin).
(§2) Total RNA was isolated from INS-1 cells using TRIzol Reagent (Invitrogen). Reverse transcription was performed using PrimeScript II first-strand cDNA synthesis kit (Takara, China), containing 1 μg of total RNA as the template. qRT-PCR was carried out using a SYBR Green assay kit (Tiangen). Specific primers for PDX-1, Insulin and the internal control gene β-actin (Actb) from Rattus norvegicus were designed with Primer Premier 5 software (Table 2). […]

INS-1 cells [1] = assay: Insulin secretion assay in INS-1 cells; assay type: cell-based, rat; settings: 5 mM glucose
Description: as §1, with “buffer.” for “buffer. Then the buffer was discarded, RPMI 1640–exendin-4 medium diluted 1:1 (v/v) with fresh medium plus 5 mM glucose (600 μl per well) were added, and the mixture was incubated for 2 h. Standard GLP-1 (100 nmol/l) in RPMI 1640 medium was used as a positive control.”

INS-1 cells [2] = assay: Staurosporine-induced apoptosis assay (Annexin V-PI, flow cytometry) in INS-1 cells; assay type: cell-based, rat; settings: pretreatment with the agent (none for staurosporine alone), then staurosporine 1 μmol/l for 1 h, n = 3
Description: INS-1 cells were seeded in 96-well plates at a density of 2 × 10^4 cells per well. After 36 h incubation, the cells were grown to nearly 60% confluence and the medium was replaced with RPMI 1640–exendin-4 medium diluted 1:1 (v/v) with fresh RPMI 1640 containing 10% FBS (100 μl per well). Standard GLP-1 in RPMI 1640 medium (100 nmol/l) was used as a positive control and pure RPMI 1640 medium was used as a blank control. The mixture was incubated for 24 h. The PI3K (phosphatidylinositol-3-kinase) antagonist treatment cells were preincubated with wortmannin (100 nmol/l) for 15 min before the treatment. The number of viable cells was then analyzed by cell counting kit-8 (CCK-8) assay (Biyuntian Biotech Co. Ltd.) based on the formation of formazan with sensitive changes in OD450 values. […] The absorbance was read at 450 nm using a Multiskan MK3 ELISA plate reader to determine the in vitro cell proliferation. For apoptosis assays, staurosporine (1 μmol/l) was added in all treatment groups for 1 h, after which the cells were treated with Annexin V-PI (propidium iodide) cell apoptosis kit (Biyuntian Biotech Co. Ltd.) and apoptosis was measured by flow cytometry using a FACScan (Becton Dickinson).

Insulin (Ins1 and Ins2) = assay: qRT-PCR of insulin gene mRNA expression in INS-1 cells; assay type: cell-based, Rattus norvegicus; settings: INS-1 cells treated 2 h, ΔΔCT, β-actin reference, n = 3
Description: as §1, §2

[3] = native GLP-1, rapid inactivation by DPP-IV; cited from earlier work
Text: Glucagon-like peptide-1 (GLP-1) is a potent incretin produced by L-cells of the distal ileum and colon in response to nutrient intake. It has a variety of antidiabetic effects that are mediated through β-cells in pancreatic islets and peripheral tissues. These include not only the promotion of glucose-dependent insulin secretion and inhibition of glucagon secretion, but also inhibition of food intake and body weight gain by delaying gastric emptying, increasing β-cell mass, and enhancing insulin sensitivity. However, despite its favorable antidiabet ...

Caco-2 cell monolayer = assay: Transport of exendin-4 through Caco-2 monolayer; assay type: in vitro ADME; settings: Caco-2 monolayer (~21 days, transwell 0.4 μm, 4.67 cm^2), apical to basolateral, s-DMEM without antibiotics, 37°C; first 3 h; ELISA; mean ± SD, n = 3
Description: Caco-2 cells (10–20 passages) were cultivated in 25-cm^2 flasks in DMEM supplemented with 10% (v/v) FBS, 1% (v/v) non-essential amino acids and 100 IU/ml penicillin–100μg/ml streptomycin (s-DMEM) at 37°C in an atmosphere of 5% CO2 and high humidity. Upon 80% confluence, cells were harvested using 0.25% trypsin EDTA and seeded on the polyester inserts (0.4 μm pore size, 24 mm diameter, 4.67 cm^2 grown surface, Costar, Corning, NY) in 6-well transwell plates at a density of 10^5 cell/cm^2 and incubated under normal cell culture conditions. The culture medium was replaced every other day for the first week and then every day until it was ready for transport studies when the monolayer became confluent and the transepithelial electrical resistance (TEER) reading reached a plateau (about 21 days). The TEER was monitored according to the method described by Hubatsch et al.
After the Caco-2 monolayer cell became confluent, the culture medium was washed twice by PBS (pH 7.4). […] Caco-2 cell viability was then measured by trypan blue assay at 0, 2, 4 and 6 h after the addition of L14/pMG76e-exendin-4 cells. […] At predetermined time points, 100 and 200 μl supernatant samples were withdrawn from the apical and basolateral sides, respectively, for exendin-4 quantification by ELISA and replaced with an equal volume of s-DMEM without the antibiotics. […]

Molecule | PDX-1 mRNA expression, fold of the blank control (PDX-1) | Insulin secretion, higher than the blank control (RPMI 1640 only) (INS-1 cells [1]; 2 h, blank control 66.5 ± 0.5 ng/ml) | Insulin secretion (insulin concentration in supernatant) (INS-1 cells [1]; 2 h incubation, conditioned medium diluted 1:1 with fresh medium, GLP-1 at 100 nmol/l, insulin ELISA, mean ± SD, n = 3) | Number of earliest-stage apoptotic cells, % of the control with no staurosporine (INS-1 cells [2]) | Insulin mRNA expression, fold of the blank control (Insulin (Ins1 and Ins2)) | Half-life in vivo [3] | Exendin-4 transport rate through the cell monolayer (Caco-2 cell monolayer)
Glucagon-like peptide-1 [GLP-1] | 1.9 fold | 7% | 71.4 ± 0.7 ng/mL | 170% | 1.7 fold | 1 to 2 min | –
exendin-4 [standard exendin-4] | – | – | – | – | – | – | 0.15 ± 0.013 pMol cm^-2 h^-1
CN[C@@H]1C[C@H]2O[C@@](C)([C@@H]1OC)n1c3ccccc3c3c4c(c5c6ccccc6n2c5c31)C(=O)NC4 [staurosporine] | – | – | – | 264.3% | – | – | –
